In paper PMC5915836, “Chiral probes for α1-AGP reporting by species-specific induced circularly polarised luminescence” (Chemical Science, 2018):

What was measured:
[1] = biological target: T1, bovine α1-AGP (α1-acid glycoprotein) (Bos taurus, UniProt Q3SZR3); test: competitive displacement of [EuL^[…]], Eu emission; assay type: binding; set-up: unit not given here; conditions: pH 7.40, 298 K; competitive with [EuL^1]
T1 construct: gene ORM1
T1 sequence (Q3SZR3 19-202): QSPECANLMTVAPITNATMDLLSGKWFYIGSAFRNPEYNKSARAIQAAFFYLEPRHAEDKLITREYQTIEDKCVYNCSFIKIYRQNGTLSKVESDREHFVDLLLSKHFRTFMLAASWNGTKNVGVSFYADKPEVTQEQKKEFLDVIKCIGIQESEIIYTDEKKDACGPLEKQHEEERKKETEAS

[2] = biological target: T2, human α1-AGP (α1-acid glycoprotein); conditions: pH 7.40, 298 K; competitive with [EuL^1]
T2 construct: gene ORM1

Bupivacaine [1]: 6.4 | Bupivacaine [2]: 5.6
Compound: CCCCN1CCCCC1C(=O)Nc1c(C)cccc1C (centres unmarked) [bupivacaine]
